How the values were obtained:
[1] = biological target: T1, α1G T-type calcium channel (Homo sapiens, UniProt O43497); assay: T-type calcium channel activity in HEK293 cells by electrophysiological whole cell patch clamp method; assay type: cell-based; settings: HEK293 cells expressing α1G
T1 construct: host or cells: HEK293
Description: The selected compounds were used in a second assay for T-type calcium channel inhibiting activity using electrophysiological whole cell patch clamp method, wherein mammal HEK293 cell lines (originated from human kidney carcinoma cells) which specifically expresses α1G of T-type calcium channel was used for the second assay. […] 10% Fetal bovine serum (FBS) and 1% penicillin/streptomycin (v/v) were added to Dulbecco's modified Eagle's medium (DMEM), to be used as a media solution. The cells were cultured in incubator under the wet condition of 95% air/5% CO2 and temperature of 36.5° C. The media solution was refreshed every 3 or 4 days, and the cells were sub-cultured every week. Only the cells which express α1G T-type calcium channel were cultured using G-418 (0.5 mg/ml) solution. The recording to the cells used in the T-type calcium channel activity analysis was conducted at 2-7 days after the cells were culturing on a cover slip coated with poly-L-lysine (0.5 mg/ml) when conducting every sub-culture. For analysis at a single cell level, the T-type calcium channel current was measured by an electrophysiological whole cell patch clamp method using EPC-9 amplifier (HEKA, German). […] Thereafter, the cell membrane potential was fixed to −100 mV, and then the inward current due to the T-type calcium channel activity when […] to −30 mV (50 ms duration) was measured every 10 seconds. […]

[2] = biological target: T1, α1G T-type calcium channel; assay: Assay for % inhibiting activity against T-type calcium channel using FDSS6000; assay type: cell-based; settings: HEK293, 10 μM, HEK293 cells expressing α1G
Description: In the present invention, in order to search an efficient inhibitor against T-type calcium channel, a primary assay for T-type calcium channel inhibiting activity was conducted by a high-efficient assay using FDSS6000, wherein mammal HEK293 cell lines (originated from human kidney carcinoma cells) which specifically expresses α1G of T-type calcium channel was used for primary assay. Through the primary assay, compounds which show meaningful inhibition effects were selected. The selected compounds were used in a second assay for T-type calcium channel inhibiting activity using electrophysiological whole cell patch clamp method, wherein mammal HEK293 cell lines (originated from human kidney carcinoma cells) which specifically expresses α1G of T-type calcium channel was used for the second assay.
At 12-24 hours before being used for this assay, cells of HEK293 cell line (α1G cell line: KCTC 10519BP, Korean Collection for Type Cultures), which stably express α1G T-type calcium channel and Kir2.1, were sub-cultured in a poly-L-lysine treated 96-well plate with the density of 4×10^4 per a well using a 96-well cell dispenser (Titertek). On the of assay, the 96-well plate to which the cells were attached were washed three times with HEPES buffer solution (150 mM of NaCl, 5 mM of KCl, 1 mM of MgCl2, 2 mM of CaCl2, 10 mM of HEPES, 10 mM of glucose; pH 7.4) using a 96-well plate automatic washing device (Bio Tek), then reacted with HEPES buffer solution containing 5 μM fluo-3/AM and 0.001% Pluronic F-127 under room temperature for 1 hour, to label with fluorescent dye, and then further washed two times with HEPES buffer solution.
Thereafter, at 10 minutes before the measurement using device FDSS6000, a washing with HEPES buffer solution containing 10 mM CaCl2 was conducted once more, and the final volume was adjusted to 81 μl. Besides the above 96-well plate containing the cells, additional two drug 96-well plates were provided, wherein the 96-well plates contain inhibiting drug and KCl (final concentration: 75 mM) for activating T-type calcium channel, respectively. Since most of cell-based HTS devices are equipped with a liquid application system for injection of drug, but have no liquid sucking system, the inhibiting drug to be tested and KCl were respectively provided at the five-times higher concentration in 10 mM CaCl2 HEPES buffer solution at the amount of 27 μl, diluted five-times at the final cell plate volume of 135 μl, and then used in this test. The concrete method of measurement using FDSS6000 was as follows: After recording the reference value of 20 seconds, the change of intracellular Ca^2+ concentration which induced by treatment of the inhibiting drug to be tested for 75 seconds followed by administration of KCl was measured, wherein the percentage (%) inhibition effect of the test drug, through estimating the area of ratio value of 340/380 in the control without treatment of the test drug as 100%. As a reference drug, mibefradil was used.
For accurate calcium-imagination, the light source of 4 xenon lamps in FDSS6000 were radiated to make the cells exposed selectively to the excitation wavelength (340 nm and 380 nm) by computer-controlled filter wheel. Data was obtained at interval of each 1.23 second. The emitter fluorescence light inflowed through long-pass filter was obtained as an average 340/380 ratio value for each well in the 96-wells by using CCD camera and digital fluorescence analyzer in FDSS6000. All image data and analyses were obtained by using FDSS6000-exclusive program provide from Hamamatsu Photonics.

[3] = Table 4 (Chemical Formula 3 series)

T1 sequence (O43497 whole entry): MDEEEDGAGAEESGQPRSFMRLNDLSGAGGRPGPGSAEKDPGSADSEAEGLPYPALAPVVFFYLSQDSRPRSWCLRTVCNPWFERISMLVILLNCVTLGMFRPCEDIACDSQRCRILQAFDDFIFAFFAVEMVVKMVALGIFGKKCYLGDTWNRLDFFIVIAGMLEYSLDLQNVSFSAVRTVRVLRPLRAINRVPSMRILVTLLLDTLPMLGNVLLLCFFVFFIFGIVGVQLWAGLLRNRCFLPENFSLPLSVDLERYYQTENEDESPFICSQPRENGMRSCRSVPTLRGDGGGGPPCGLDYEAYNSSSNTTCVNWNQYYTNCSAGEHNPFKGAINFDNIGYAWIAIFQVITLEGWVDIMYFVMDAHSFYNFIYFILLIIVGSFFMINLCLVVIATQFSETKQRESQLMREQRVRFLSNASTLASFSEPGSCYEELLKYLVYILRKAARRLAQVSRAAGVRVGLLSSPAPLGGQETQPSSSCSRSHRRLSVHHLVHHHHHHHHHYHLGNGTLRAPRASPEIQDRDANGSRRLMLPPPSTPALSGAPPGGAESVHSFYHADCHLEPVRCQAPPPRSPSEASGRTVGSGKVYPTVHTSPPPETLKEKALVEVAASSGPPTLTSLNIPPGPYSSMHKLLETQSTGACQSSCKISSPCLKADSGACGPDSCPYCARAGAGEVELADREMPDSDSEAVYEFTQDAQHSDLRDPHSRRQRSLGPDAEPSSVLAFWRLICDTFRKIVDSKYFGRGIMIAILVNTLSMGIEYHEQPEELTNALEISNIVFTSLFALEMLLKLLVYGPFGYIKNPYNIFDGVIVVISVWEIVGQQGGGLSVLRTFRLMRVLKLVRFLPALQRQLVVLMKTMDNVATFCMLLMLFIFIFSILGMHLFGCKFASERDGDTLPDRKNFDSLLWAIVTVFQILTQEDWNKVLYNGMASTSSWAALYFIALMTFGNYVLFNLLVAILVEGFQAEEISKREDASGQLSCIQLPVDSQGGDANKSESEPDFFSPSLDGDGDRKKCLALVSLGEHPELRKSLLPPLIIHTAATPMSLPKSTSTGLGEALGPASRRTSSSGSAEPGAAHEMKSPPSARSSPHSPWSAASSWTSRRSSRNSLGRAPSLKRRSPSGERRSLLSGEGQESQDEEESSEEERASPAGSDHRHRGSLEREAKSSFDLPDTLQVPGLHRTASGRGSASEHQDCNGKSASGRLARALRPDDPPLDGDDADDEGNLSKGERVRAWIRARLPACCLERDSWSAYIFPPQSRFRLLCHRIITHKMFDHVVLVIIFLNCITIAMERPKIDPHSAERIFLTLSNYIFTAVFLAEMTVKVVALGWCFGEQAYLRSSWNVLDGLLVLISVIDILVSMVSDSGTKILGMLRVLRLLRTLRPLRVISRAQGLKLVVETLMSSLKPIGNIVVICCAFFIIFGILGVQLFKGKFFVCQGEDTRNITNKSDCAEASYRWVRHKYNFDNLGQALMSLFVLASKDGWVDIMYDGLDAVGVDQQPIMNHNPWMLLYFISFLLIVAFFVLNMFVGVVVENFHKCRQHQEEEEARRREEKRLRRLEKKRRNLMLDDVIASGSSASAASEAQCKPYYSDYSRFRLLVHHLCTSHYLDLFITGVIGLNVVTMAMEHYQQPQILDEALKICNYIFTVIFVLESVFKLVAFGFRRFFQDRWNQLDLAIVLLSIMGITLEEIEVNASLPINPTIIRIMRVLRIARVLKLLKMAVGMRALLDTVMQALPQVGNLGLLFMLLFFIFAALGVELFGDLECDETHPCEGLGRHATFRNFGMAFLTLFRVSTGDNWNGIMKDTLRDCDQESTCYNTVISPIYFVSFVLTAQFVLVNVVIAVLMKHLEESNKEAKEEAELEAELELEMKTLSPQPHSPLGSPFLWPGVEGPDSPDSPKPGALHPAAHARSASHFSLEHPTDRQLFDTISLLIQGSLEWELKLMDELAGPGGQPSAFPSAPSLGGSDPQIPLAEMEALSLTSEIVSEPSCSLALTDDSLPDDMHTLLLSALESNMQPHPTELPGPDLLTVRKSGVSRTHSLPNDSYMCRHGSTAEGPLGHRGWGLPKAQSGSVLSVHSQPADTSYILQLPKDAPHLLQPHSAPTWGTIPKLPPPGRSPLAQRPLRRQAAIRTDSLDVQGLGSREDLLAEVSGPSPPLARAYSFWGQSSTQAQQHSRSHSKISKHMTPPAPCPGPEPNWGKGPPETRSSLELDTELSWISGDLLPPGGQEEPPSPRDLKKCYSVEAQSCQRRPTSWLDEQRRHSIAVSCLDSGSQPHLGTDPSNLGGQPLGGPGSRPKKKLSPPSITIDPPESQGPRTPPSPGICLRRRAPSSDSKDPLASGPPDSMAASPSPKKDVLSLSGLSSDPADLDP

| Compound | IC50 [1] [nM] | inhibition at 10 µM [2, 3] [%] | melting point [°C] | inhibition at 10 µM ([2]; Table 3 (Chemical Formula 2 series)) [%] |
| --- | --- | --- | --- | --- |
| Br.COc1ccc(-c2csc(N=C(N)N)n2)c(OC)c1 [KHG24376, 2-(4-(2,4-dimethoxyphenyl)thiazole-2-yl)guanidine hydrobromide] |  | 16.1 | 213 |  |
| Br.NC(N)=Nc1nc(-c2ccccc2F)cs1 [KHG24384, 2-(4-(2-fluorophenyl)thiazole-2-yl)guanidine hydrobromide] |  | 20.3 | 229.6 |  |
| Br.NC(N)=Nc1nc(-c2ccc(Cl)c(Cl)c2)cs1 [KHG24390, 2-(4-(3,4-dichlorophenyl)thiazole-2-yl)guanidine hydrobromide] |  | 7.32 | 256.3 |  |

Second part, the compound after the results:

| IC50 [1] [nM] | inhibition at 10 µM [2, 3] [%] | melting point [°C] | inhibition at 10 µM ([2]; Table 3 (Chemical Formula 2 series)) [%] | Compound |
| --- | --- | --- | --- | --- |
| 780 ± 80 |  |  |  | NC(N)=Nc1nc(CC(=O)Nc2cc(C(F)(F)F)cc(C(F)(F)F)c2)cs1 [drawing 11] |
| 310 ± 220 |  |  |  | NC(N)=Nc1nc(CC(=O)Nc2cc(Cl)cc(Cl)c2)cs1 |
|  | 20.8 | 278.5 |  | Br.NC(N)=Nc1nc(-c2ccc(Br)cc2)cs1 [KHG24381, 2-(4-(4-bromophenyl)thiazole-2-yl)guanidine hydrobromide] |
|  |  | 246.4 to 247 | 34.5 | Cl.NC(N)=Nc1nc(CC(=O)Nc2ccc(Br)cc2)cs1 [KHG23178, N-(4-bromophenyl)-2-(2-(diaminomethyleneamino)thiazole-4-yl)acetamide hydrochloride] |
